Measurements reported in US20210278391A1, “COMPOSITIONS AND METHODS FOR TREATING CARDIOVASCULAR AND METABOLIC CONDITIONS” (The Regents of the University of California, priority 2017, published 2021).

System: pressure-overloaded mouse heart
Assay: TAC heart failure model with preexisting dysfunction, BT2 from 2 weeks post-TAC for 6 weeks, echocardiography and survival
Assay type: in vivo
Experimental: In mice, transverse aortic constriction (TAC) was performed as described (Lee et al. (2011) Circulation Research 109:1332-1341) in anesthetized (pentobarbital 60 mg/kg, IP) and ventilated mice (age 12-14 weeks) to induce hypertrophy and heart failure. After left anterolateral thoracotomy with blunt dissection through the intercostal muscles, aortic constriction was induced by ligating the transverse aorta around a 27½-gauge blunt needle using 6-0 silk suture. The needle was subsequently removed. Sham-operated mice underwent a similar surgical procedure without constriction of the aorta. All mice were maintained in the same environment with regular lab chow and water ad libitum. At the end of the experiments, animals were euthanized and the hearts and lungs were removed and weighed. Hearts were dissected and tissues were either immediately immersed into 4% buffered formaldehyde or quickly frozen in liquid nitrogen for further experiments.

[1] = after 5 weeks post-TAC (3 weeks post-treatment), speckle tracking
[2] = by 2 weeks of BT2 treatment (4 weeks post-TAC)

O=C(O)c1sc2cc(Cl)ccc2c1Cl [BT2, 3,6-dichlorobenzo[b]thiophene-2-carboxylic acid]
longitudinal early diastolic strain rate (SRe) (5 weeks post-TAC): remarkably improved
chamber size (ΔLVIDs, ΔLV Vols) (BT2 treated mouse hearts post-TAC): stable maintenance
myocardial strain [1]: significantly improved
myocardial strain rate [1]: significantly improved
increase of EF from baseline (week 2) [2]: 6.0±3.4 points
increase of FS from baseline (week 2) [2]: 3.5±1.9 points
systolic dysfunction (continuation of BT2 for additional 4 weeks): additional alleviations
beneficial effect on SRe at radial circumferential planes (during the treatment period): dispersity
mouse survival (from two weeks after treatment): improved
systolic velocity and displacement in longitudinal and radial planes (post-TAC): increase
systolic function (pressure-overloaded mouse heart, six weeks treatment): preserved
pressure-overload-induced cardiac structural remodeling (six weeks treatment): alleviated
